Where a name gives a salt, the structure may show the parent alone.
Tests used:
[1] = tested on: LP-1 cell line (FGF-1/Heparin induced pERK); assay: Cell-based pERK ELISA, LP-1 cells; conditions: Homo sapiens, LP-1, read-out: LP-1 pERK ELISA (μM)
[2] = tested on: parental wild-type Ba/F3 cells; assay: Ba/F3 (WT) cell proliferation assay (Alamar Blue); format: cell-based; conditions: Mus musculus; for inhibition at 3 µM / inhibition at 10 µM / inhibition at 1 µM: BaF3, read-out: BaF3 WT prolif, % inhibition; for IC50: BaF3, 72 hours, Alamar Blue, read-out: BaF3 WT prolif
VEGFR2 = VEGFR2 (Homo sapiens (Human), UniProt P35968); assay: VEGFR2 in vitro kinase inhibitory activity assay (TRF, Flt3 substrate); format: biochemical; conditions: for inhibition at 1 µM: 1 h, read-out: VEGFR2 % I
Chain of VEGFR2 (P35968 20-1356): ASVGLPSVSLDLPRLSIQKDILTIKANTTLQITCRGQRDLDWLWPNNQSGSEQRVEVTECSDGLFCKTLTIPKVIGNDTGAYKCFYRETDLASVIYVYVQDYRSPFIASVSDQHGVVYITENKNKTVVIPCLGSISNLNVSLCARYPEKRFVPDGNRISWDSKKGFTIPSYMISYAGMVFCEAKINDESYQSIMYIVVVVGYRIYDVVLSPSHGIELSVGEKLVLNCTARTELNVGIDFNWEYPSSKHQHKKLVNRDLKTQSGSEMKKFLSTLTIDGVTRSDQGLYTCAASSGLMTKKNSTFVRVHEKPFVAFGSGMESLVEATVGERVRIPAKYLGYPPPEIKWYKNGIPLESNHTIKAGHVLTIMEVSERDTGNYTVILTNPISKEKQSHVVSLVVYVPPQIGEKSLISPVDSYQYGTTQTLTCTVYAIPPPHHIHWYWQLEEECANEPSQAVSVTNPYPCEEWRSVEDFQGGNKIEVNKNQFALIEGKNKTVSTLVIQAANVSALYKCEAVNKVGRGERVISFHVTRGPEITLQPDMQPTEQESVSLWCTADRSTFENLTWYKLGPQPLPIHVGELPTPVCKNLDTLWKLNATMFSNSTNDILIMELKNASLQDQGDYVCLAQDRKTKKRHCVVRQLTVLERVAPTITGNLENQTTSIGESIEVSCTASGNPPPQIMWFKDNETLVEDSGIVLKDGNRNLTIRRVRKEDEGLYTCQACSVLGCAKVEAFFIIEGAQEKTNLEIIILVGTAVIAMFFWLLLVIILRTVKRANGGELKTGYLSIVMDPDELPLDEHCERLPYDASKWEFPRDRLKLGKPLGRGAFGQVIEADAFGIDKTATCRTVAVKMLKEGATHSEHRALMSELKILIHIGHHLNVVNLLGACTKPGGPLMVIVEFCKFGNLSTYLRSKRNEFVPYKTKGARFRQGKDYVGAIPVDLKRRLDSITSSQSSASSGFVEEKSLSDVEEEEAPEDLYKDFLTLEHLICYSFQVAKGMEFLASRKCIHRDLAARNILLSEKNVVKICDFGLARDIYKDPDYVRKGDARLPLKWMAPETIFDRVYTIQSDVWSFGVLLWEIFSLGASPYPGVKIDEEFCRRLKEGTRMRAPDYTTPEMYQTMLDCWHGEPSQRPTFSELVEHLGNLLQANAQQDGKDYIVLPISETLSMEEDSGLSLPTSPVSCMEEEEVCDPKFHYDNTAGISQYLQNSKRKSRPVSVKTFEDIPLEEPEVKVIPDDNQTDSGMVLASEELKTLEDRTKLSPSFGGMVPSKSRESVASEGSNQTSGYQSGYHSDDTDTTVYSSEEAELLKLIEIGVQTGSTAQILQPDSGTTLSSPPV

FGFR3 = FGFR3 (Homo sapiens (Human), UniProt P22607); assay: FGFR3 in vitro kinase inhibitory activity assay (TRF); conditions: 3 h, read-out: FGFR3 % I
Chain of FGFR3 (P22607 23-806): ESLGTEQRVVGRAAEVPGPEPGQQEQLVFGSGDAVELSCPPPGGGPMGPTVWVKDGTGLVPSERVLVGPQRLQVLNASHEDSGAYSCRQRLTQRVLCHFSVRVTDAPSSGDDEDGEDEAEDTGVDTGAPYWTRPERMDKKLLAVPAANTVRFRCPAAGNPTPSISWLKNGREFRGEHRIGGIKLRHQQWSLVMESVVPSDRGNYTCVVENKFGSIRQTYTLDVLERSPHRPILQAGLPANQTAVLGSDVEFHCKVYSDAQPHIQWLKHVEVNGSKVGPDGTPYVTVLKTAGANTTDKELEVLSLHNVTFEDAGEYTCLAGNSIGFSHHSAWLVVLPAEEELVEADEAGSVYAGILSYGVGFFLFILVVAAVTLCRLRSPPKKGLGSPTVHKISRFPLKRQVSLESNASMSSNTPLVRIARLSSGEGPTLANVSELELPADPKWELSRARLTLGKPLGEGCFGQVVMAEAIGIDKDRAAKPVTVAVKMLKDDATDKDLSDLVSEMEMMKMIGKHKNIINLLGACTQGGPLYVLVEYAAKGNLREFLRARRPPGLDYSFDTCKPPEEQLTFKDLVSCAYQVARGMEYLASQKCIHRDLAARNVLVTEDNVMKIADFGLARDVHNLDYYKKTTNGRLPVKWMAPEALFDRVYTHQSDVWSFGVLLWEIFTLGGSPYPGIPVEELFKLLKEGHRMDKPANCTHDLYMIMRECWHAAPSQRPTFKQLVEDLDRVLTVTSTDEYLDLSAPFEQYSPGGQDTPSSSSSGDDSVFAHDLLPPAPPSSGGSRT

Ba/F3-TEL-FGFR3 cells = assay: Ba/F3-TEL-FGFR3 cell proliferation assay (Alamar Blue); format: cell-based; conditions: 72 hours, Alamar Blue; read-out: BaF3-TEL-FGFR3 prolif

For `O=C(NCC(F)(F)F)Nc1cccc(-c2cnc3cc(-c4nccc(N5CCNCC5)n4)ccn23)c1` (as salt: HCl) (hydrate or solvate) [Compound 269], the melting point was 200 °C.

Work on `Nc1nc(-c2ccn3c(-c4cccc(NC(=O)NCC(F)(F)F)c4)cnc3c2)ncc1C(=O)O` (as salt: HCl) (hydrate or solvate) [Compound 277] yielded a melting point of over 260 °C.

`Cc1nnc(-c2ccn3c(-c4cccc(NC(=O)NC5CC5)c4)cnc3c2)o1` [Compound 157B] showed a melting point of 229.6 °C.

Work on `O=C(Nc1cccc(-c2cnc3cc(-c4nncs4)ccn23)c1)NC1CC1` [Compound 158B] yielded a melting point of 205 °C.

Work on `N#Cc1cnc(-c2ccn3c(-c4cccc(NC(=O)NCC(F)(F)F)c4)cnc3c2)nc1N` [Compound 165B] yielded a melting point of 161 °C.

Work on `O=C(NCC(F)(F)F)Nc1cccc(-c2cnc3cc(-c4nnc(NC5CC5)s4)ccn23)c1` [Compound 250] yielded an IC50 [1] of 0.075 µM, an inhibition at 3 µM [2] of 25% and an IC50 [2] of 1730 nM. The melting point was over 280 °C.

In the case of `O=C(NCC(F)(F)F)Nc1cc(F)cc(-c2cnc3cc(-c4ccnc(C(F)(F)F)n4)ccn23)c1` [Compound 251], the inhibition at 10 µM [2] is reported as 0% and the melting point is reported as 263 °C.

In the case of `COc1cc(NC(=O)NCC(F)(F)F)cc(-c2cnc3cc(-c4ncc(F)c(N)n4)ccn23)c1` [Compound 252], the inhibition at 1 µM [2] is reported as 0%, the IC50 (VEGFR2) is reported as over 1000 nM and the melting point is reported as 154 °C.

`N#Cc1ccnc(-c2ccn3c(-c4cccc(NC(=O)NCC(F)(F)F)c4)cnc3c2)n1` [Compound 253] showed an IC50 [2] of 1800 nM and a melting point of 210 °C.

`N#Cc1ccc(-c2ccn3c(-c4cccc(NC(=O)NCC(F)(F)F)c4)cnc3c2)nn1` [Compound 255] showed an inhibition at 10 µM [2] of 0% and a melting point of 267 °C.

`CC(C)(O)c1cnc(-c2ccn3c(-c4cccc(NC(=O)NCC(F)(F)F)c4)cnc3c2)nc1` [Compound 257] showed an IC50 [2] of 3900 nM and a melting point of 146 °C.

With `Nc1nc(-c2ccn3c(-c4cc(NC(=O)NCC(F)(F)F)cc(C(F)(F)F)c4)cnc3c2)ncc1F` [Compound 258] the inhibition at 3 µM [2] was 36%, the inhibition at 1 µM (VEGFR2) was 37% and the melting point was 185 °C.

With `Nc1nc(-c2ccn3c(-c4cccc(NC(=O)NCC(F)(F)F)c4)cnc3c2)ncc1CN1CCC1` [Compound 259] the IC50 [2] was 2600 nM and the melting point was 195 °C.

Compound `CN(C)Cc1cnc(-c2ccn3c(-c4cccc(NC(=O)NCC(F)(F)F)c4)cnc3c2)nc1N` [Compound 260] has an inhibition at 1 µM [2] of 0% and a melting point of 130 °C.

`Nc1nnc(-c2ccn3c(-c4cccc(NC(=O)NCC(F)(F)F)c4)cnc3c2)s1` [Compound 261] gave an inhibition at 10 µM [2] of 0% and a melting point of over 260 °C.

`O=C(NCC(F)(F)F)Nc1cccc(-c2cnc3cc(C#Cc4nccn4CCO)ccn23)c1` [Compound 262] showed an inhibition at 10 µM [2] of 20% and a melting point of 228 °C.

In the case of `CCNC(=O)Nc1cccc(-c2cnc3cc(C#Cc4cncn4C)ccn23)c1` [Compound 264], the IC50 [1] is reported as 0.31 µM, the inhibition at 10 µM [2] is reported as 25% and the melting point is reported as 163 °C.

In the case of `Cn1cncc1C#Cc1ccn2c(-c3cncc(NC(=O)NCC(F)(F)F)c3)cnc2c1` [Compound 265], the IC50 (VEGFR2) is reported as over 30000 nM and the melting point is reported as over 250 °C.

Work on `Cn1cncc1C#Cc1ccn2c(-c3cccc(NC(N)=O)c3)cnc2c1` [Compound 267] yielded an inhibition at 10 µM [2] of 55% and a melting point of 162 °C.

For `NC(=O)Nc1cccc(-c2cnc3cc(-c4nncs4)ccn23)c1` [Compound 268], the IC50 [1] was 1.83 µM, the inhibition at 3 µM [2] was 23.5% and the melting point was 259 °C.

In the case of `O=C(NCC(F)(F)F)Nc1cccc(-c2cnc3cc(-c4nccc(N5CCN(CCO)CC5)n4)ccn23)c1` [Compound 270], the inhibition at 3 µM [2] is reported as 16% and the melting point is reported as 179.8 °C.

For `NCC1CCN(c2ccc(-c3ccn4c(-c5cccc(NC(=O)NCC(F)(F)F)c5)cnc4c3)cn2)CC1` [Compound 271], the inhibition at 0.001 µM (FGFR3) was 59%, the IC50 [2] was 120 nM and the IC50 (Ba/F3-TEL-FGFR3 cells) was 63 nM. For the same compound, the melting point was 80 °C.

`CN(C)S(=O)(=O)NCC1CCN(c2ccc(-c3ccn4c(-c5cccc(NC(=O)NCC(F)(F)F)c5)cnc4c3)cn2)CC1` [Compound 272] showed an inhibition at 0.00097 µM (FGFR3) of 51%, an IC50 [2] of 200 nM and an IC50 (Ba/F3-TEL-FGFR3 cells) of 51 nM. It also gave a melting point of 145 °C.

Work on `CC(C)COC(=O)Nc1nc(-c2ccn3c(-c4cccc(NC(=O)NCC(F)(F)F)c4)cnc3c2)ncc1F` [Compound 273] yielded an inhibition at 10 µM [2] of 43%, an inhibition at 1 µM (VEGFR2) of 40% and a melting point of 215.2 °C.

Work on `NCc1cc(NC(=O)NCC(F)(F)F)cc(-c2cnc3cc(-c4ccnc(C(F)(F)F)n4)ccn23)c1` [Compound 274] yielded an inhibition at 1 µM (VEGFR2) of 55% and a melting point of 190 °C.

In the case of `O=C(NCC(F)(F)F)Nc1cccc(-c2cnc3cc(-c4ncc(CO)cn4)ccn23)c1` [Compound 276], the inhibition at 1 µM [2] is reported as 0% and the melting point is reported as 222 °C.

For `CC(O)c1cnc(-c2ccn3c(-c4cccc(NC(=O)NCC(F)(F)F)c4)cnc3c2)nc1` (centres unmarked) [Compound 278], the inhibition at 1 µM [2] was 0% and the melting point was 224 °C.

`CS(=O)(=O)Nc1nc(-c2ccn3c(-c4cccc(NC(=O)NCC(F)(F)F)c4)cnc3c2)ncc1F` [Compound 279] gave an inhibition at 10 µM [2] of 7% and a melting point of over 350 °C.

From US8796244B2, “Imidazopyridine derivatives as inhibitors of receptor tyrosine kinases” (Astex Therapeutics Ltd, priority 2008, dated 2014)
